Assay results reported in US5939583A, “Substituted 4-biphenyl-4-hydroxybutyric acid derivatives as matrix metalloprotease inhibitors” (Bayer Corporation, priority 1997, dated 1999).

How the values were obtained:
[1] = Stability of hydroxy acids as solids and in aged solutions (spontaneous lactonization); format: physicochemical; details: for stability as solids: purified crystalline hydroxy acids
Text: This was evidenced by the chemical shift of H-4 on the 4S lactone at δ5.40 ppm and that on the 4R lactone at δ5.65 ppm. The hydroxy acid that converted to the 2S, 4R lactone was thus identified as the 2S, 4R hydroxy acid (Example 1) and that which converted to the 2S, 4S lactone was identified as the 2S, 4S hydroxy acid (Example 2).

[2] = target: T1, Human recombinant gelatinase B (MMP-9) (Homo sapiens, UniProt P14780); format: biochemical; details: P218 6 μM, pH 6.5, 25 min, 37° C.
T1 construct: made in house; host or cells: baculovirus protein expression system
Text: P218 Fluorogenic Substrate
(§1) MMP Microfluorometric Profiling Assay.

[3] = target: T2, Human Recombinant gelatinase A (MMP-2) (Homo sapiens, UniProt P08253); format: biochemical; details: P218 6 μM, pH 6.5, 25 min, 37° C.
T2 sequence (P08253 110-660): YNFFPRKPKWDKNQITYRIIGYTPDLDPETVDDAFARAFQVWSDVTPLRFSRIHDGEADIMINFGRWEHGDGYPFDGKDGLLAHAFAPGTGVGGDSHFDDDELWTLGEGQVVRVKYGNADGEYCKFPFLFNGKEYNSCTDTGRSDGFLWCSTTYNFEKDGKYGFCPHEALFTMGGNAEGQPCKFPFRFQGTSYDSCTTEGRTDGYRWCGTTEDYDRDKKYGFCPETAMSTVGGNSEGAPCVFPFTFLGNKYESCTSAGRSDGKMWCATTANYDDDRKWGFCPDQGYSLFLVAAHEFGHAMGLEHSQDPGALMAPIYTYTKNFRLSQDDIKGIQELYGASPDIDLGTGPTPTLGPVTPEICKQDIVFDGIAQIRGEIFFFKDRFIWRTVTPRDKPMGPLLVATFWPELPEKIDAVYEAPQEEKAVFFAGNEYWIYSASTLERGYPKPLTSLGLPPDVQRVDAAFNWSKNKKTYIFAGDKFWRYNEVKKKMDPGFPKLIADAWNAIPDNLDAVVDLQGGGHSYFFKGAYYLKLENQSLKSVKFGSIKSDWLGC

[4] = tested on: human ovarian carcinoma xenografts; details: mice bearing human ovarian carcinoma xenografts; cited from earlier work
[5] = tested on: MMP-3; details: WO 9615096 examples; cited from earlier work
[6] = target: T3, Recombinant Human CHO Stromelysin (MMP-3) (Homo sapiens, UniProt P08254); format: biochemical; details: P218 6 μM, pH 6.5, 25 min, 37° C.
T3 construct: made in house; host or cells: CHO
Text: The reaction was stopped by addition of soybean trypsin inhibitor (SBTI; 5:1 w/w to trypsin concentration).
as §1

T3 sequence (P08254 100-477): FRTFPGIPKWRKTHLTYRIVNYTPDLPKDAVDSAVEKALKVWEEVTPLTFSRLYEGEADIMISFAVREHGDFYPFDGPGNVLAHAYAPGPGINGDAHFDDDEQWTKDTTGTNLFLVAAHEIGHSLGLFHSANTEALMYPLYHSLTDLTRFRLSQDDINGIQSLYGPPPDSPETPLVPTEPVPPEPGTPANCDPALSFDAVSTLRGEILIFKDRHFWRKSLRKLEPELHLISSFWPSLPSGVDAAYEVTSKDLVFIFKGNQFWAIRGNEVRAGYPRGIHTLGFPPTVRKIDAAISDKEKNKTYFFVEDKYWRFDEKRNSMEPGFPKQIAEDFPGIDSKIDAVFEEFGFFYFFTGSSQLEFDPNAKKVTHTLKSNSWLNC
T1 sequence (P14780 107-707 limits assumed): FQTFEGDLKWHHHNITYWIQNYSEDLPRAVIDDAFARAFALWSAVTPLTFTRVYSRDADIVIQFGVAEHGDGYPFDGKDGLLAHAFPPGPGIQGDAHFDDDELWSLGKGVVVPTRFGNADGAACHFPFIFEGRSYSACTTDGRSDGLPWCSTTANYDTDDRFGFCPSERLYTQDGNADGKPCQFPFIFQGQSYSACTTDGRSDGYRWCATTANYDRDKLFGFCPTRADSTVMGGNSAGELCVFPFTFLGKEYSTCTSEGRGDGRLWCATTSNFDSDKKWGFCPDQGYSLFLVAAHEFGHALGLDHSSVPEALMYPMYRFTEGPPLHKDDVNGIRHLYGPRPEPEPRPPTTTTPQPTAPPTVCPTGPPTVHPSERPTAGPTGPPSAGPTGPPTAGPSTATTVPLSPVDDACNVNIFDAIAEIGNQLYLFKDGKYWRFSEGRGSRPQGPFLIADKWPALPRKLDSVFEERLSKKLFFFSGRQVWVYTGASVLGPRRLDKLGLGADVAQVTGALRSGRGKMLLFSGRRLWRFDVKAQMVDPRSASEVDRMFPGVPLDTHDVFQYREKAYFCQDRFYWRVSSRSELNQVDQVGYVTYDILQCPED

O=C(O)[C@@H](CSc1ccccc1)C[C@H](O)c1ccc(-c2ccc(Cl)cc2)cc1 [Example 2, [2S, 4S]-4-[4-(4-chlorophenyl)phenyl]-4-hydroxy-2-(phenylthiomethyl)butanoic acid]
spontaneous lactonization in aged solutions [1]: slowly showed one or other of the lactones as a result of spontaneous lactonization
stability as solids [1]: relatively stable as solids

O=C(C[C@H](CSc1ccccc1)C(=O)O)c1ccc(-c2ccc(Cl)cc2)cc1
IC50 [2]: 492 nM
IC50 [3]: 20 nM

CNC(=O)[C@H](Cc1ccccc1)NC(=O)[C@H](CC(C)C)[C@H](CSc1cccs1)C(=O)NO [batimastat]
survival [4]: prolongs the survival

O=C(O)[C@@H](CSc1ccccc1)C[C@@H](O)c1ccc(-c2ccc(Cl)cc2)cc1 [Example 1, [2S, 4R]-4-[4-(4-chlorophenyl)phenyl]-4R-hydroxy-2-(phenylthiomethyl)butanoic acid]
spontaneous lactonization in aged solutions [1]: slowly showed one or other of the lactones as a result of spontaneous lactonization
stability as solids [1]: relatively stable as solids

CC(C)CC(CC(O)c1ccc(-c2ccc(Cl)cc2)cc1)C(=O)O (single isomer, unassigned) [Example 33]
potency as MMP-3 inhibitors relative to corresponding 4-biphenyl-4-oxobutyric acid derivatives [5]: less potent

O=C(C[C@H](CCCc1ccccc1)C(=O)O)c1ccc(-c2ccc(Cl)cc2)cc1
IC50 [2]: 209 nM
IC50 [3]: 34 nM
IC50 [6]: 108 nM

O=C(O)[C@@H](CCCc1ccccc1)CC(O)c1ccc(-c2ccc(Cl)cc2)cc1 (single isomer, unassigned) [drawing 38]
IC50 [2]: 82 nM
IC50 [3]: 9.4 nM
IC50 [6]: 50 nM

O=C(O)[C@@H](CCCc1ccccc1)CC(O)c1ccc(-c2ccc(Cl)cc2)cc1 (single isomer, unassigned) [drawing 39]
IC50 [2]: 369 nM
IC50 [3]: 46 nM
IC50 [6]: 1200 nM

O=C(O)[C@@H](CSc1ccccc1)C[C@@H](O)c1ccc(-c2ccc(Cl)cc2)cc1 [drawing 35]
IC50 [2]: 58 nM
IC50 [3]: 2.8 nM
IC50 [6]: 34 nM

O=C(C[C@H](CSc1ccc(O)cc1)C(=O)O)c1ccc(-c2ccc(Cl)cc2)cc1
IC50 [2]: 115 nM
IC50 [3]: 3 nM
IC50 [6]: 155 nM

O=C(O)[C@@H](CSc1ccccc1)C[C@H](O)c1ccc(-c2ccc(Cl)cc2)cc1 [drawing 36]
IC50 [2]: 890 nM
IC50 [3]: 62 nM
IC50 [6]: 1550 nM

CC(C)CC(CC(O)c1ccc(-c2ccc(Cl)cc2)cc1)C(=O)O (single isomer, unassigned) [Example 34]
potency as MMP-3 inhibitors relative to corresponding 4-biphenyl-4-oxobutyric acid derivatives [5]: less potent
